# Measurements as given in ChEMBL document CHEMBL1201862, “PubChem BioAssay data set” (2004).
# Structures can show the parent of a compound that is named as a salt. Activity calls are given as the source filed them.
# Legend:
# [1] = target: T1, Short transient receptor potential channel 4 (Mus musculus, UniProt Q9QUQ5); assay: mouse TRPC4 channel inhibitors, dose response, cell-based, HEK293 TRPC4/mu-opioid, Fluo-4 calcium (AID 434942); format: functional;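 note: potency of inhibitors blocking the TRPC4 calcium response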
# T1 sequence (Q9QUQ5 whole entry): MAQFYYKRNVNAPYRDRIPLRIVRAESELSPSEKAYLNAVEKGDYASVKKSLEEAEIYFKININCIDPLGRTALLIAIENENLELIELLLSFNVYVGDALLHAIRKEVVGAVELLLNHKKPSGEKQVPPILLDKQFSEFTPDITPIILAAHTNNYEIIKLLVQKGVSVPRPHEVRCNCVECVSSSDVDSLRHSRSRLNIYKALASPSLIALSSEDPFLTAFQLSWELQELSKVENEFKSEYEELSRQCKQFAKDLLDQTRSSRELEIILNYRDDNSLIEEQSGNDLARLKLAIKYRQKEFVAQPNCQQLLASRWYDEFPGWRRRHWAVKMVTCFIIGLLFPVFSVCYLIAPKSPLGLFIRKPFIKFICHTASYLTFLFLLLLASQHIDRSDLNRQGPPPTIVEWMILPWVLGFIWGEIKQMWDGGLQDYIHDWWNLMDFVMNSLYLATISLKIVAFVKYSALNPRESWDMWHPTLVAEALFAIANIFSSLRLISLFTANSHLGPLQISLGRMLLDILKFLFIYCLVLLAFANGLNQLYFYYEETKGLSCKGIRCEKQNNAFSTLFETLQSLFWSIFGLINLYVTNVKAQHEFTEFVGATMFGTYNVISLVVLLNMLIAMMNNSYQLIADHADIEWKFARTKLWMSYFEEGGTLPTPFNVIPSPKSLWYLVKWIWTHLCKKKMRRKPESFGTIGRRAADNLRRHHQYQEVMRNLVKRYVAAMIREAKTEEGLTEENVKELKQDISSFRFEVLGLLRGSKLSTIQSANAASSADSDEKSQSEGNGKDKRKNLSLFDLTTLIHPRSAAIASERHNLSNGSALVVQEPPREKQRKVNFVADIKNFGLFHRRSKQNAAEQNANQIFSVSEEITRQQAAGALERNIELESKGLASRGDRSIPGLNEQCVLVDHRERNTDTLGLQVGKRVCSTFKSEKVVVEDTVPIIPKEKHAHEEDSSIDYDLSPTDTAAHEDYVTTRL
# [2] = A cytotoxicity screen of small molecule inhibitors of the PhoP region in Salmonella typhi identified in the primary screen. [Related pubchem assays: 1850, 1864, 1985 ]; format: functional
# [3] = THP-1 cell cytotoxicity, dose response, cytotoxicity control for non-replicating M. tuberculosis project (AID 489025); format: functional
# cells = format: functional
# [4] = microbe, parasite or virus in culture; format: functional; settings: Mycobacterium tuberculosis
# [5] = target: FAD-linked sulfhydryl oxidase ALR (Homo sapiens, UniProt P55789); assay: inhibitors of human ALR sulfhydryl oxidase, dose response, biochemical, H2O2 detection, luminescence, cherry-pick (AID 493248)
# FAD-linked sulfhydryl oxidase ALR, sequence (P55789 whole entry): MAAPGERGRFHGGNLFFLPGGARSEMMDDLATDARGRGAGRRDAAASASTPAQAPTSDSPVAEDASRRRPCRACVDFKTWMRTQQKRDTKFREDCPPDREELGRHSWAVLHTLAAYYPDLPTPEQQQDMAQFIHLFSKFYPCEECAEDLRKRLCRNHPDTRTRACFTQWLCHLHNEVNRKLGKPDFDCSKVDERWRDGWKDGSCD
# [6] = target: T2, DNA repair protein RAD52 homolog (Homo sapiens, UniProt P43351); format: functional, biochemical
# T2 sequence (P43351 whole entry): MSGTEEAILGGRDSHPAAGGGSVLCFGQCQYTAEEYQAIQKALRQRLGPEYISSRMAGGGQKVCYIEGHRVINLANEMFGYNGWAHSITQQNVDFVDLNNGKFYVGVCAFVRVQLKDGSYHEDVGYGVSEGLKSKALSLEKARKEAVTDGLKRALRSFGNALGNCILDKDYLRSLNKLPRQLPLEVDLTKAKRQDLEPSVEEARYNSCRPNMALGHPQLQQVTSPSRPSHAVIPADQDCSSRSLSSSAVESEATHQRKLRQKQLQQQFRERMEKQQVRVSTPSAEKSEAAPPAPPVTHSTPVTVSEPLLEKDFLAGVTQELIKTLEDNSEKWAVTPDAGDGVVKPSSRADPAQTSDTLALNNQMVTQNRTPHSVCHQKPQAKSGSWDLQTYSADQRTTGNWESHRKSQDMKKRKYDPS
# [7] = growth suppression of beta-catenin-knockout colon cells, dose response, cell-based, HCT116, human colon tumor (AID 1045); format: functional;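 note: HCT116 colon tumor cells with beta catenin knocked out; cells exposed to compound for 60 hours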
# [8] = target: T3, Polyadenylate-binding protein 1 (Homo sapiens, UniProt P11940); assay: PABP1 MLLE–PAM2 binding inhibitor potency, dose response, biochemical, fluorescence polarization, FITC-PAM2 peptide (AID 602259); format: functional; settings: read-out: IC50_Mean
# T3 sequence (P11940 whole entry): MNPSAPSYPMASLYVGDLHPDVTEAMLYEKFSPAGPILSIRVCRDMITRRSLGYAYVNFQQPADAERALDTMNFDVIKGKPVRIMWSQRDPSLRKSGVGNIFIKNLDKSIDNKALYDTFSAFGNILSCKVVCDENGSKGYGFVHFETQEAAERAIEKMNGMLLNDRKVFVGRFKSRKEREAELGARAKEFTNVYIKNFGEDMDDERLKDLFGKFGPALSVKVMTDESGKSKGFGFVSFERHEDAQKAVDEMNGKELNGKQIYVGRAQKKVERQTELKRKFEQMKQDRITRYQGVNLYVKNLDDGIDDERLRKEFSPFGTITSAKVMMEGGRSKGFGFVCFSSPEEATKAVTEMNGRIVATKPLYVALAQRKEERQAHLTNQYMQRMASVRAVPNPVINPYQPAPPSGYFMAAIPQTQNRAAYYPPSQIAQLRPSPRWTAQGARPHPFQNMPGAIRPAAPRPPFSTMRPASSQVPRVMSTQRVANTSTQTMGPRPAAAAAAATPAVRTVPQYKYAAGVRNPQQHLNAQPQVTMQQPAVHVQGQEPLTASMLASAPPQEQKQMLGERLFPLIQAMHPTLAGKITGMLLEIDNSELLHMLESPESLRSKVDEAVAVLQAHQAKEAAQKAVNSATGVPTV
# [9] = growth suppression of PTEN-null colon cells, dose response, cell-based, HCT116 PTEN knockout (AID 1047); format: functional;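 note: HCT116 colon tumor cells with PTEN knocked out; cells exposed to compound for 60 hours before readout; potency for loss of cell viability measured by luminescence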
# [10] = target: T3, Polyadenylate-binding protein 1; assay: PABP1 MLLE–PAM2 interaction inhibitors, dose response, miRNA deadenylation inhibitor project, biochemical, fluorescence polarization, Cy5-PAM2 peptide, secondary (AID 602260); format: functional; settings: read-out: IC50_Mean
# [11] = inhibitors of firefly luciferase expression or activity, dose response, H4 neuroglioma cells, luminescence (AID 1990); format: functional, cell-based
# [12] = inhibitors of SNCA 5'UTR-driven reporter translation, confirmation, H4 neuroglioma cells, luminescence (AID 1988); format: functional, cell-based
# [13] = Luminescence Cell-Based Dose Response HTS to Identify Inhibitors of 5'UTR Stem-Loop Driven Prion Protein mRNA Translation in H4 Neuroglioblastoma Cells. [Related pubchem assays: 1827 (Project Summary), 1813 (Primary HTS)]; format: functional
# [14] = cytotoxicity toward NIH3T3 fibroblasts, dose response, counter-screen, cell-based, ATP luminescence, mouse fibroblasts (AID 2010); format: functional;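 note: cells exposed to compound for about 90 hours before reading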
# [15] = NIH-3T3 fibroblast cytotoxicity, dose response, cytotoxicity control, cell-based, fluorescence, Alamar Blue, secondary assay (AID 2327); format: functional;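 note: NIH-3T3 mouse fibroblasts cultured with fluconazole at 8 µg/mL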
# [16] = C. albicans growth with fluconazole, confirmation, fluorescence, retest (AID 2467); format: functional, cell-based
# [17] = inhibitors of intracellular T. cruzi replication, confirmation, NIH3T3 host cells, beta-gal luminescence (AID 2044); format: functional, cell-based;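 note: intracellular parasites grown in NIH/3T3 mouse fibroblasts as host cells; luminescent beta-galactosidase reporter signal from transgenic T. cruzi replicating inside host cells; inhibitors lower the luminescence signal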
# Caspase-6 = target: T4, Caspase-6 (Homo sapiens, UniProt P55212); assay: human caspase-6 inhibitors, dose response, biochemical, VEID-R110 fluorescence, cherry-pick (AID 720632)
# T4 sequence (P55212 whole entry): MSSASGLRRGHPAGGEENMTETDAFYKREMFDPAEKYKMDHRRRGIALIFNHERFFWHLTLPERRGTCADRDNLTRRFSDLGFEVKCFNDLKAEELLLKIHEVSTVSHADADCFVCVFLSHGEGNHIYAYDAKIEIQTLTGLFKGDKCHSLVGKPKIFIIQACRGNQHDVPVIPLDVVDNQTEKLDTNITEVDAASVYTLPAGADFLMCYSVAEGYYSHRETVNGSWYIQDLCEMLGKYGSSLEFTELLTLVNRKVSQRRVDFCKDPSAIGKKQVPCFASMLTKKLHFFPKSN
# [18] = target: T5, Rac GTPase-activating protein 1 (Homo sapiens, UniProt Q9H0H5); assay: MgcRacGAP GTPase-activating activity inhibitors, confirmation, biochemical, ADP Hunter fluorescence, primary and confirmatory (AID 624330); format: functional
# T5 sequence (Q9H0H5 whole entry): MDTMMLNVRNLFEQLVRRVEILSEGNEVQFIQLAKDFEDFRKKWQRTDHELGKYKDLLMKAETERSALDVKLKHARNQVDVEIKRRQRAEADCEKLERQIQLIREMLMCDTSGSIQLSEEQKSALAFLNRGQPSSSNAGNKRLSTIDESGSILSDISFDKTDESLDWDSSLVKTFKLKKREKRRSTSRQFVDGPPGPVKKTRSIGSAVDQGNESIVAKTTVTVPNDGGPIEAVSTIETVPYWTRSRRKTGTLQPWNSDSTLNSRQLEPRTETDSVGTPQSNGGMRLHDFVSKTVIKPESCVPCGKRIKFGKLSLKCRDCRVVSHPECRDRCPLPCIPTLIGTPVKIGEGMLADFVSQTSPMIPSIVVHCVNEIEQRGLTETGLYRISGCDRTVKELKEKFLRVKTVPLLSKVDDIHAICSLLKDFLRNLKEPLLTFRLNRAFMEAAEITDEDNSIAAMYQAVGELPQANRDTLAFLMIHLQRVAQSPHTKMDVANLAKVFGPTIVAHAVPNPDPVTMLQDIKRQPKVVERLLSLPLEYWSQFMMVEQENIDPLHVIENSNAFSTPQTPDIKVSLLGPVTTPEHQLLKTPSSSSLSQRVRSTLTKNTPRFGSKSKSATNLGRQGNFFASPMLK
# [19] = Luminescence Cell-Based Dose Confirmation HTS to Identify Inhibitors of Platelet Dense Granule Release. [Related pubchem assays: 1663 (Primary HTS), 1678 (Summary of Project)]; format: functional
# [20] = target: Luciferin 4-monooxygenase (Photinus pyralis, UniProt P08659); assay: firefly luciferase enzyme inhibitors, dose response, biochemical, luminescence (AID 1891)
# Luciferin 4-monooxygenase, sequence (P08659 whole entry): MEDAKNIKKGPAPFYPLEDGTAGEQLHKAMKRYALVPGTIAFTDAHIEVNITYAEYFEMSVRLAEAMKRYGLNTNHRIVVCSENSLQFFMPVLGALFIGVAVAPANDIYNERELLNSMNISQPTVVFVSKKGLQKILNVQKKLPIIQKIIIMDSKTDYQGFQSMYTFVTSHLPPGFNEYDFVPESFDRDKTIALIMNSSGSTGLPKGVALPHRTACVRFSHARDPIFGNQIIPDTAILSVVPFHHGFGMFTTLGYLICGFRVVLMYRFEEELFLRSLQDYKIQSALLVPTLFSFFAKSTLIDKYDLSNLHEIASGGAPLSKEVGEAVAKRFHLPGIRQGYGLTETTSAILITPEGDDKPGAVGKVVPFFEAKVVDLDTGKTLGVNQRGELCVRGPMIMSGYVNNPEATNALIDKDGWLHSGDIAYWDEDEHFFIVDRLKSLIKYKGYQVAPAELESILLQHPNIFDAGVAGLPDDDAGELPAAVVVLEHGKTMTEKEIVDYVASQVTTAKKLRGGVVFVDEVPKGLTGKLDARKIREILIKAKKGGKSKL
structure (smiles),measurement,setting,value
COc1ccc(CN2CCN(C(=O)c3ccc(F)cc3)CC2)c(OC)c1,EC50,[1],3.76 µM (active)
CCCC(c1nnnn1Cc1ccc(OC)cc1)N1CCN(c2ccccc2OC)CC1 (stereo not given),EC50,[2],> 50 µM (active)
Cc1ccc2c(c1)N(C(=O)CCC(=O)Nc1ccccc1Cl)CC(C)O2 (stereo not given),EC50,[1],1.5 µM (active)
COc1ccc(OC)c(S(=O)(=O)N2CCC(C(=O)NCCc3ccc(OC)c(OC)c3)CC2)c1,EC50,[2],> 50 µM (active)
O=C(Cc1ccccc1)N1CCN(Cc2cccc(Br)c2)CC1,EC50,[1],13.3 µM (active)
N#Cc1nc(-c2ccc(OCc3ccccc3)cc2)oc1NCCCn1ccnc1,CC50,[3],24.7 µM (active)
same,IC50,cells,46.5 µM (active)
same,CC50,[4],> 40 µM (active)
CC(C)(C)Nc1nc(NC(C)(C)C)nc(-n2ccnc2)n1,CC50,[3],> 40 µM (active)
same,IC50,cells,22.9 µM (active)
NNC(=O)CCc1nc2ccc(O)cc2[nH]1,AC50,[5],3.82 µM (active)
Cc1cc(N)ccc1NC(=O)CN1CCCC1,AC50,[6],1.73 µM (active)
NC(=O)SCC(=O)Nc1ccc(Cl)c(Cl)c1,EC50,[7],31 µM (active)
same,IC50,[8],> 66 µM (inactive)
same,EC50,[9],50.8 µM (active)
same,EC50,[2],> 50 µM (active)
same,IC50,[10],> 66 µM (inactive)
Oc1cnnc(Nc2ccc(Nc3ccccc3)cc2)n1,AC50,[5],0.323 µM (active)
CN(C)c1ccc(C(=S)N2CCNCC2)cc1,AC50,[5],2.18 µM (active)
OCCN1CCN(CC(O)COc2ccc(C34CC5CC(CC(C5)C3)C4)cc2)CC1 (stereo not given),AC50,[6],16 µM (active)
same,EC50,[11],> 120 µM (not active)
same,EC50,[12],> 120 µM (not active)
same,EC50,[13],> 120 µM (not active)
COc1cccc(C(=O)N2CCCC(Nc3ccc(C)c(C)c3)C2)c1 (stereo not given),AC50,[5],7.17 µM (active)
CC(=O)c1ccc(-[n+]2cc(-c3ccc(C(C)(C)C)cc3)n3c2SCCC3)cc1,CC50,[3],11.4 µM (active)
same,EC50,[14],> 60 µM (not active)
same,EC50,[15],> 150 µM (inactive)
same,EC50,[16],2.03 µM (active)
same,IC50,cells,20.9 µM (active)
same,CC50,[4],> 40 µM (active)
same,EC50,[17],0.443 µM (active)
CCOc1c(Cl)cc(CNCC(O)c2ccccc2)cc1OC (stereo not given),EC50,[1],2.11 µM (active)
COc1cc(C(=O)NCC(c2ccco2)N2CCc3ccccc32)cc(OC)c1OC (stereo not given),AC50,[5],5.5 µM (active)
Cc1cccc(-n2nc(C)c3c(C(=O)O)cc(-c4cccs4)nc32)c1,EC50,[1],2.99 µM (active)
O=S(=O)(c1ccccc1)N1CCN(C/C=C/c2ccccc2)CC1,EC50,[1],5.96 µM (active)
CCC(Sc1nc2cc[nH]cc-2n1)C(=O)Nc1ccc(C)c(Cl)c1 (stereo not given),EC50,[14],> 60 µM (not active)
same,EC50,[2],> 50 µM (active)
same,EC50,[17],2.06 µM (active)
NC(=O)C1C(=O)c2ccccc2C1(C[N+](=O)[O-])c1ccccc1 (stereo not given),AC50,Caspase-6,38.1 µM (active)
Cn1c(N)c(N=O)c(=O)n(C)c1=S,AC50,Caspase-6,6.37 µM (active)
Cc1cc(-c2c(C)[nH]n(-c3ccccc3)c2=O)[nH]n1,CC50,[3],> 40 µM (active)
same,AC50,[5],5.41 µM (active)
same,IC50,cells,5.35 µM (active)
same,CC50,[4],33 µM (active)
CC12CCC(C(=O)N/N=C/c3ccc(O)cc3)(OC1=O)C2(C)C (stereo not given),AC50,[5],0.099 µM (active)
Cc1nc2ccc(-c3nc4cc(N)ccc4[nH]3)cc2[nH]1,IC50,[18],54 µM (active)
same,AC50,[5],0.736 µM (active)
same,EC50,[11],> 120 µM (not active)
same,EC50,[12],38 µM (active)
same,EC50,[13],16.6 µM (active)
O=C(/C=C/c1ccc(O)cc1)c1ccccc1 [4-HYDROXYCHALCONE],EC50,[19],< 0.701 µM (active)
same,EC50,[2],> 50 µM (active)
same,EC50,[20],< 0.088 µM (active)
C[C@](N)(Cc1ccc(O)c(O)c1)C(=O)O [METHYLDOPA],AC50,Caspase-6,39.2 µM (active)
CC[C@@H](CO)NC(=O)[C@@H]1C=C2c3cccc4[nH]cc(c34)C[C@H]2N(C)C1 [METHYLERGONOVINE MALEATE],AC50,Caspase-6,7.04 µM (active)
